Consider two compounds from publication PMC10038264, “A new family of glutamate-gated chloride channels in parasitic sea louse Caligus rogercresseyi: A subunit refractory to activation by ivermectin is dominant in heteromeric assemblies” (PLOS Pathogens, 2023).

Values joined by “and” are separate entries in the source; they are usually repeats but may differ in a detail not shown here. Identical values can stand only once. “Also recorded” adds a separate entry of the source. Like-named read-outs stand apart in the source and are kept apart here.

The test system of one test is DmGluClα. On the set-up: method as in PMID 7935817, PMID 8702744, PMID 25994631. The note with it: read-out: EC50 glutamate; cited from earlier work.
The next test concerns CrGluCl-B. Briefly: Two-electrode voltage-clamp of Xenopus oocytes expressing CrGluCl-B. Format: cell-based, Caligus rogercresseyi. The settings on record: for activation by ivermectin (EC50 Ivermectin column): CrGluCl-B WT alone, 1-3 μM ivermectin. On the procedure:
(§1) Adult female Xenopus laevis frogs were anaesthetized by immersion in a1g/L solution tricaine (Ethyl 3-aminobenzoate methanesulfonate, Sigma) buffered to pH 7 with NaHCO3. Surgery was performed 30–40 min later, once the frog was completely anaesthetized judging by loss of reflexes. Ovarian lobes were removed through 1 cm abdominal incision and then kept at 16°C in Barth’s modified solution containing (in mM): 88 NaCl, 1 KCl, 0.4 CaCl2, 0.3 Ca (NO3)2, 0.8 MgSO4, 2.4 NaHCO3, 5 Hepes, 2.5 sodium pyruvate, 100 μg/ml gentamicin sulfate, 100 U/ml penicillin, 100 μg/ml streptomycin, 250 μg/ml amphotericin B, 0.22μm filtered and adjusted to pH 7.5 with Tris-Base. Osmolarity was brought to 220 mOsm with saccharose. The oocytes were manually defolliculated on the same day of extraction and the following day 20 ng cRNA in nuclease-free water was injected into stage V-VI oocytes using a FemtoJet microinjector (Eppendorf). Finally, the injected oocytes were stored in 96 well plates containing Barth’s modified solution and kept at 16°C until experiment day.
Current measurements at controlled membrane potentials (voltage-clamp experiments) were performed using two intracellular microelectrodes in defolliculated Xenopus oocytes previously microinjected with 20 ng of cRNA. Voltage-clamp recording was performed at room temperature using a TURBO TEC-10CX amplifier (npi electronic GmbH, Tamm, Germany) and PClamp 10.6 software (Axon Instruments, USA), 1 to 4 days after oocyte injection. The oocytes were recorded in a chamber (Model RC-1Z, Warner Instrumenst, USA) under continuous superfusion. […] Reference was an Ag-AgCl electrode connected to the bath via a 3 M KCl in 3% agar bridge. Currents were recorded continuously during the experiments without interruptions for solution changes. Oocytes were held at -30 mV and a voltage protocol consisting of a voltage drop to -100 mV for 25ms followed by a 360 ms ramp from -100 mV to 60mV applied with a period of 565 ms was continuously given. The signal filtered at 1 kHz was acquired with a Digidata 1440A Analog-to-Digital Converter and analyzed with Axon pClamp 10.6 software. The solution that bathed the oocytes during the electrophysiological recordings had the following composition (mM): 115 NaCl, 2 KCl, 1.8 CaCl2, 1 MgCl2, 10 HEPES pH 7.5 obtained with NaOH. For the low chloride solution, all the NaCl was replaced with the gluconate salt of Na. This decreases chloride concentration from 122.6 to 7.6 mM while increasing that of gluconate from 0 to 115 mM. The stock solutions of the drugs in dimethyl sulfoxide (DMSO) were: 10 mM emamectin, 10 mM ivermectin, 100 mM picrotoxin. These were diluted in bath solution to obtain final concentrations.
The currents were normalized according to the extrapolated maximum current delivered by the Hill adjustment. In this way, the concentration that generates 50% of the maximum effect (EC50) and the Hill coefficient (nH) for each situation were obtained.
Background: Two-electrode voltage clamp is typically applied to oocytes expressing channels or transporters.

The next test deals with CrGluCl-B Q279E mutant. In words: Voltage-clamp of oocytes expressing CrGluCl-B Q279E mutant. The note with it: 1 μM ivermectin, one-sample t-test. It is filed as cell-based, Caligus rogercresseyi. The text has this: To identify putative GluCl subunits, we queried the NCBI Transcriptome Shotgun Assembly Sequence (TSA) Database for “glutamate-gated chloride channel Caligus”. The obtained sequences were translated and BLASTed (tBLASTn) against the C. rogercresseyi genome (WGS, BioProject ID 280098, NCBI) and against transcripts of L. salmonis database (https://licebase.org/). Primers for each of the putative new subunit found were designed to span the full length of the open reading frame (ORF) for each of them (B-E) (S1 Table, and arrows in Fig 1). Complete cDNAs were generated by RT-PCR from adult C. rogercresseyi samples from which putative full-length peptide sequences of CrGluCl-B, CrGluCl-C, CrGluCl-D and CrGluCl-E were obtained. Each PCR product was cloned in pGEM-T easy vector and sequenced. […]
(§2) Current measurements at controlled membrane potentials (voltage-clamp experiments) were performed using two intracellular microelectrodes in defolliculated Xenopus oocytes previously microinjected with 20 ng of cRNA. […] The oocytes were recorded in a chamber (Model RC-1Z, Warner Instrumenst, USA) under continuous superfusion. […] Currents were recorded continuously during the experiments without interruptions for solution changes. […] The signal filtered at 1 kHz was acquired with a Digidata 1440A Analog-to-Digital Converter and analyzed with Axon pClamp 10.6 software. […]

The test system of test [1] is coexpressed CrGluCl-D:CrGluCl-C. Briefly: Voltage-clamp of oocytes coinjected with CrGluCl-D and CrGluCl-C. It is filed as cell-based, Caligus rogercresseyi. The note with it: D:C ratio 1:1. The procedure: as §1, with “The oocytes were manually defolliculated on the same day of extraction and the following day 20 ng cRNA in nuclease-free water was injected into stage V-VI oocytes using a FemtoJet microinjector (Eppendorf). Finally, the injected oocytes were stored in 96 well plates containing Barth’s modified solution and kept at 16°C until experiment day.” left out
as §2

One may read the EC50 as the midpoint of the concentration-response curve. For `N[C@@H](CCC(=O)O)C(=O)O` [glutamate, L-glutamate], the EC50 in the test with DmGluClα is 23000 nM.

What is called IC50 is the concentration needed to halve the response being measured. Turning to ivermectin, in the test with CrGluCl-B (1 mM glutamate after 1 μM ivermectin, CrGluCl-B), the “current evoked by glutamate after ivermectin treatment” value turned out to be 1.70 ± 1.69 μA. Also, the “activation by ivermectin (EC50 Ivermectin column)” value in the test with CrGluCl-B is “without effect”; with CrGluCl-B (listed as Ivermectin), “no effect; also recorded: Insensitive”. The “nH (ivermectin inhibition)” value in the test with CrGluCl-B (CrGluCl-B, 3 mM glutamate) is -2.2 ± 0.5 and -2.2. In addition, the IC50 in the test on CrGluCl-B (CrGluCl-B, as restated in discussion, read-out: IC50 ivermectin inhibition of glutamate-activated current) was 340 nM; in the test with CrGluCl-B (CrGluCl-B, continuous 3 mM glutamate, read-out: IC50 ivermectin antagonism of glutamate-elicited current), 342 ± 114 nM. In the test on CrGluCl-B Q279E mutant, the “effect of ivermectin on current” value is “small but significant effects”. The “Iver response to activation” value in test [1] is reported as “Sensitive”.
